# Experiments:
# Salmonella enterica [1] = test: Binding affinity to Salmonella enterica Threonyl-tRNA synthetase assessed as change in melting temperature at 0.5 mM incubated for 10 mins by SYPRO orange dye-based thermal shift assay
# Salmonella enterica [2] = test: Inhibition of Salmonella enterica Threonyl-tRNA synthetase assessed as reduction in aminoacylation activity at 100 uM using L-threonine as substrate incubated for 3 hrs by Kinase-glo luminescence assay relative to control
# [3] = Inhibition of Salmonella enterica Threonyl-tRNA synthetase assessed as reduction in aminoacylation activity using L-threonine as substrate in presence of incubated for 3 hrs by Kinase-glo luminescence assay
# Staphylococcus aureus [4] = test: Antibacterial activity against Staphylococcus aureus ATCC 29213 by visual method; type: functional
# Staphylococcus aureus [5] = test: Antibacterial activity against methicillin-resistant Staphylococcus aureus R3708 by visual method; type: functional
# Enterococcus faecalis = test: Antibacterial activity against Enterococcus faecalis ATCC 29212 by visual method; type: functional
# Escherichia coli = test: Antibacterial activity against Escherichia coli ATCC 25922 by visual method; type: functional
# Salmonella enterica [6] = test: Antibacterial activity against Salmonella enterica 87 by visual method; type: functional
# Pseudomonas aeruginosa = test: Antibacterial activity against Pseudomonas aeruginosa ATCC 27853 by visual method; type: functional
# [7] = Binding affinity to Salmonella enterica Threonyl-tRNA synthetase at 200 uM by isothermal titration calorimetry
SMILES,ΔTm (Salmonella enterica [1]) [°C],inhibition (Salmonella enterica [2]) [%],IC50 [3] [µM],further results
C[C@@H](O)[C@H](N)C(=O)NC/C=C/Cn1cnc2cc(Cl)c(F)cc2c1=O,18.8,93,9.7,–
COc1cc2c(=O)n(C/C=C/CNC(=O)[C@@H](N)[C@@H](C)O)cnc2cn1,9.6,17,–,–
C[C@@H](O)[C@H](N)C(=O)NS(=O)(=O)c1cccc(-c2ccc3[nH]ncc3c2)c1,29.5,100,0.13,MIC (Staphylococcus aureus [4]): > 256 µg/mL; MIC (Staphylococcus aureus [5]): > 256 µg/mL; MIC (Enterococcus faecalis): > 256 µg/mL; MIC (Escherichia coli): > 256 µg/mL; MIC (Salmonella enterica [6]): > 256 µg/mL; MIC (Pseudomonas aeruginosa): > 256 µg/mL
C[C@@H](O)[C@H](N)C(=O)NC/C=C/Cn1cnc2cnc(Cl)cc2c1=O,14.9,68,49.7,–
C[C@@H](O)[C@H](N)C(=O)OC/C=C/Cn1cnc2cc(Br)c(Cl)cc2c1=O,15.7,96,9.6,–
C[C@@H](O)[C@H](N)C(=O)NC/C=C/Cn1cnc2cc(Br)c(Cl)cc2c1=O,22.5,99,3.2,MIC (Staphylococcus aureus [4]): 32 µg/mL; MIC (Staphylococcus aureus [5]): 64 µg/mL; MIC (Enterococcus faecalis): 64 µg/mL; MIC (Escherichia coli): 32 µg/mL; MIC (Salmonella enterica [6]): 16 µg/mL; MIC (Pseudomonas aeruginosa): 32 µg/mL
O=C(CC1NCCCC1O)Cn1cnc2cc(Br)c(Cl)cc2c1=O (stereo unspecified) [HALOFUGINONE],-1.4,5,–,MIC (Staphylococcus aureus [4]): 64 µg/mL; MIC (Staphylococcus aureus [5]): 64 µg/mL; MIC (Enterococcus faecalis): 128 µg/mL; MIC (Escherichia coli): 64 µg/mL; MIC (Salmonella enterica [6]): 64 µg/mL; MIC (Pseudomonas aeruginosa): 64 µg/mL
C[C@@H](O)[C@H](N)C(=O)OCCCCCn1cnc2cc(Br)c(Cl)cc2c1=O,9.8,30,–,–
C[C@@H](O)[C@H](N)C(=O)N1CCC(C(=O)Cn2cnc3cc(Br)c(Cl)cc3c2=O)CC1,0,0,–,–
C[C@@H](O)[C@H](N)C(=O)NC/C=C/Cn1cnc2cc(Cl)ncc2c1=O,8.6,34,–,–
C[C@@H](O)[C@H](N)C(=O)NCCCCCCn1cnc2cc(Br)c(Cl)cc2c1=O,12.4,96,7.3,–
C[C@@H](O)[C@H](N)C(=O)NC/C=C/Cn1cnc2cc(Br)c(Br)cc2c1=O,20.3,100,2.4,–
Cc1cc2ncn(C/C=C/CNC(=O)[C@@H](N)[C@@H](C)O)c(=O)c2cc1C,10.6,7,–,–
COc1cc2ncn(C/C=C/CNC(=O)[C@@H](N)[C@@H](C)O)c(=O)c2cc1OC,1.5,0,–,–
C[C@@H](O)[C@H](N)C(=O)NC/C=C/Cn1cnc2cc3c(cc2c1=O)OCO3,9.5,5,–,–
C[C@@H](O)[C@H](N)C(=O)NC/C=C/Cn1cnc2cc3ccccc3cc2c1=O,16.9,70,55.5,–
C[C@@H](O)[C@H](N)C(=O)OCCCCCCn1cnc2cc(Br)c(Cl)cc2c1=O,9.9,32,–,–
C[C@@H](O)[C@H](N)C(=O)NC/C=C/Cn1cnc2cnc(F)cc2c1=O,12,36,–,–
C[C@@H](O)[C@H](N)C(=O)OCCCCn1cnc2cc(Br)c(Cl)cc2c1=O,10.2,42,–,–
C[C@@H](O)[C@H](N)C(=O)NC/C=C/Cn1cnc2cc3c(cc2c1=O)OCCO3,0.6,0,–,–
C[C@@H](O)[C@H](N)C(=O)OCCCn1cnc2cc(Br)c(Cl)cc2c1=O,7.5,0,–,–
C[C@@H](O)[C@H](N)C(=O)NC/C=C/Cn1cnc2cc(F)c(F)cc2c1=O,17.2,77,39.4,–
C[C@@H](O)[C@H](N)C(=O)NC/C=C/Cn1cnc2cc(Cl)c([N+](=O)[O-])cc2c1=O,0.5,0,–,–
C[C@@H](O)[C@H](N)C(=O)N1CCC(Cn2cnc3cc(Br)c(Cl)cc3c2=O)CC1,12.4,23,–,–
CC1(C)S[C@@H]2[C@H](NC(=O)[C@H](N)c3ccccc3)C(=O)N2[C@H]1C(=O)O [AMPICILLIN],–,–,–,MIC (Escherichia coli): 1 µg/mL; MIC (Salmonella enterica [6]): 1 µg/mL; MIC (Pseudomonas aeruginosa): 1 µg/mL
C[C@@H](O)[C@H](N)C(=O)NC/C=C/Cn1cnc2ccccc2c1=O,9.2,15,–,–
C[C@@H](O)[C@H](N)C(=O)NCCCCCn1cnc2cc(Br)c(Cl)cc2c1=O,14,87,29.7,–
C[C@@H](O)[C@H](N)C(=O)NC/C=C/Cn1cnc2cc(Cl)c(Cl)cc2c1=O,23.7,101,1.4,Kd [7]: 1360 nM; MIC (Staphylococcus aureus [4]): 32 µg/mL; MIC (Staphylococcus aureus [5]): 32 µg/mL; MIC (Enterococcus faecalis): 32 µg/mL; MIC (Escherichia coli): 16 µg/mL; MIC (Salmonella enterica [6]): 16 µg/mL; MIC (Pseudomonas aeruginosa): 32 µg/mL
CN[C@H](CC(C)C)C(=O)N[C@H]1C(=O)N[C@@H](CC(N)=O)C(=O)N[C@H]2C(=O)N[C@H]3C(=O)N[C@H](C(=O)N[C@H](C(=O)O)c4cc(O)cc(O)c4-c4cc3ccc4O)[C@H](O)c3ccc(c(Cl)c3)Oc3cc2cc(c3O[C@@H]2O[C@H](CO)[C@@H](O)[C@H](O)[C@H]2O[C@H]2C[C@](C)(N)[C@H](O)[C@H](C)O2)Oc2ccc(cc2Cl)[C@H]1O [VANCOMYCIN],–,–,–,MIC (Enterococcus faecalis): 2 µg/mL
C[C@@H](O)[C@H](N)C(=O)NC/C=C/Cn1cnc2cc(C(F)(F)F)ccc2c1=O,11.9,21,–,–

# Reference: ChEMBL document CHEMBL4402548, “Discovery of novel tRNA-amino acid dual-site inhibitors against threonyl-tRNA synthetase by fragment-based target hopping” (Eur J Med Chem, 2020)
